Results reported in ChEMBL document CHEMBL4725259 (Bioorg Med Chem, 2020).
Calls of active or inactive are those of the source. No cut-off for these calls is given here.

Key:
[1] = target: C-C chemokine receptor type 8 (Homo sapiens, UniProt P51685); experiment: Antagonist activity at human CCR8 expressed in CHO-K1 cells at 20 uM by PathHunter beta-arrestin assay relative to control; type: cell-based; conditions: filed as antagonist
[2] = target: T1, C-X-C chemokine receptor type 4 (Homo sapiens, UniProt P61073); experiment: Agonist activity at human CXCR4 expressed in mouse C2C12 cells at 20 uM by PathHunter beta-arrestin assay relative to control; type: cell-based
T1 sequence (P61073 whole entry): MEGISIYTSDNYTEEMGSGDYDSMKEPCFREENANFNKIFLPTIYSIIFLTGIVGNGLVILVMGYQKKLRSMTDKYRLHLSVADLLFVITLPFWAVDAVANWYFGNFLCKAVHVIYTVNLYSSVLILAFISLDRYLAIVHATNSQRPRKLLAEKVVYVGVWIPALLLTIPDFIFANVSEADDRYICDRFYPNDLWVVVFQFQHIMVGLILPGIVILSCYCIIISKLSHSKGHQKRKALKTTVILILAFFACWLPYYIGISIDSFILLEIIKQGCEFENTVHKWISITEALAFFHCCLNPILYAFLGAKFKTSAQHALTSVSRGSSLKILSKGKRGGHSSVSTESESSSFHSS

[3] = target: T2, CX3C chemokine receptor 1 (Homo sapiens) (UniProt P49238); experiment: Agonist activity at human CX3CR1 expressed in CHO-K1 cells at 20 uM by PathHunter beta-arrestin assay relative to control; type: cell-based
T2 sequence (whole entry): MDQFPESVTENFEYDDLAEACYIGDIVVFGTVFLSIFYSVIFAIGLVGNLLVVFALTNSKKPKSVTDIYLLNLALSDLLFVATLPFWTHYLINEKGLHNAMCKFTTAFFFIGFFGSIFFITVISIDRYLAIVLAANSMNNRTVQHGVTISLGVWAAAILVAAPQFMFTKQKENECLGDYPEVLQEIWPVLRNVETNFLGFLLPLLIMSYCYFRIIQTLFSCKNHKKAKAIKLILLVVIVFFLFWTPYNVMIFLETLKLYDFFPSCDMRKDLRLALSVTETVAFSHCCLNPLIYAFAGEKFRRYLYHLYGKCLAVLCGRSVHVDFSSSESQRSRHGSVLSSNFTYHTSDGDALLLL

[4] = target: T3, Oxytocin receptor (Homo sapiens) (UniProt P30559); experiment: Antagonist activity at human OXTR expressed in CHO-K1 cells at 20 uM by PathHunter beta-arrestin assay relative to control; type: cell-based; conditions: filed as antagonist
T3 sequence (whole entry): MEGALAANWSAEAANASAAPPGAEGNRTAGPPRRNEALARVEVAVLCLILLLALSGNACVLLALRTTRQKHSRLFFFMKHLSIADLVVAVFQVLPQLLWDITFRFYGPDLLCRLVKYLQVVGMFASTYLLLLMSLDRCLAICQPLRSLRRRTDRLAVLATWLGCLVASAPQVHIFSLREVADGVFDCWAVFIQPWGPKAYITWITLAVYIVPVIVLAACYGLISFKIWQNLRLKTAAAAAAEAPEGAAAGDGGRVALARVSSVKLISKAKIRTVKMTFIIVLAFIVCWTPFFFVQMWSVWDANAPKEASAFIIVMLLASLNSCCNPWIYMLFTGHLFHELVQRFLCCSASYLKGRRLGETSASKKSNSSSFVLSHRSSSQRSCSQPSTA

[5] = target: T4, Prolactin-releasing peptide receptor (Homo sapiens) (UniProt P49683); experiment: Agonist activity at human PRLHR expressed in CHO-K1 cells at 20 uM by PathHunter beta-arrestin assay relative to control; type: cell-based
T4 sequence (whole entry): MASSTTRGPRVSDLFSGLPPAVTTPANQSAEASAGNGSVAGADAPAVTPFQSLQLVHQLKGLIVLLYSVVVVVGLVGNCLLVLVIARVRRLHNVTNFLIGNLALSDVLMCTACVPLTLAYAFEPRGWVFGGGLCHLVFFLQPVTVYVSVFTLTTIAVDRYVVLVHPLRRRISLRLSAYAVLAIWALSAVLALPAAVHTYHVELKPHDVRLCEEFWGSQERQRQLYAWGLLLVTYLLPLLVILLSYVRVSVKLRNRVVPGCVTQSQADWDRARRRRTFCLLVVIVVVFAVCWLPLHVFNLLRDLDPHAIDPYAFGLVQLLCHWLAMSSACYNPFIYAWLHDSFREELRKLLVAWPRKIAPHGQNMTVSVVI

U2OS [6] = experiment: Antagonist activity at NPSR1B in human U2OS cells at 20 uM by PathHunter beta-arrestin assay relative to control; type: cell-based; conditions: filed as antagonist
[7] = target: T2, CX3C chemokine receptor 1 (Homo sapiens); experiment: Antagonist activity at human CX3CR1 expressed in CHO-K1 cells at 20 uM by PathHunter beta-arrestin assay relative to control; type: cell-based; conditions: filed as antagonist
Vasopressin V2 receptor = Vasopressin V2 receptor (Homo sapiens, UniProt P30518); experiment: Agonist activity at human AVPR2 at 20 uM by PathHunter beta-arrestin assay relative to control
Vasopressin V2 receptor, sequence (P30518 whole entry): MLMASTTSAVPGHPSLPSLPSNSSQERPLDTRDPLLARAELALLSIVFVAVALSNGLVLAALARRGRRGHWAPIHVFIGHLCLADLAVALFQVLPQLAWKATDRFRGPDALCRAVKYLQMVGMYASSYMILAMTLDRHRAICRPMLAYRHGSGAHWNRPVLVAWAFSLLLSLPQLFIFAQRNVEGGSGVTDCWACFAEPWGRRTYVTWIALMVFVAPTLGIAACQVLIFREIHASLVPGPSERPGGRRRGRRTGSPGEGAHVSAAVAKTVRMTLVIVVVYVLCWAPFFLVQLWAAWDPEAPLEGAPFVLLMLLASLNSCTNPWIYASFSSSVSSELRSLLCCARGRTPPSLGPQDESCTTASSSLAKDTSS

[8] = target: T5, Follicle-stimulating hormone receptor (Homo sapiens) (UniProt P23945); experiment: Antagonist activity at human FSHR expressed in CHO-K1 cells at 20 uM by PathHunter beta-arrestin assay relative to control; type: cell-based; conditions: filed as antagonist
T5 sequence (whole entry): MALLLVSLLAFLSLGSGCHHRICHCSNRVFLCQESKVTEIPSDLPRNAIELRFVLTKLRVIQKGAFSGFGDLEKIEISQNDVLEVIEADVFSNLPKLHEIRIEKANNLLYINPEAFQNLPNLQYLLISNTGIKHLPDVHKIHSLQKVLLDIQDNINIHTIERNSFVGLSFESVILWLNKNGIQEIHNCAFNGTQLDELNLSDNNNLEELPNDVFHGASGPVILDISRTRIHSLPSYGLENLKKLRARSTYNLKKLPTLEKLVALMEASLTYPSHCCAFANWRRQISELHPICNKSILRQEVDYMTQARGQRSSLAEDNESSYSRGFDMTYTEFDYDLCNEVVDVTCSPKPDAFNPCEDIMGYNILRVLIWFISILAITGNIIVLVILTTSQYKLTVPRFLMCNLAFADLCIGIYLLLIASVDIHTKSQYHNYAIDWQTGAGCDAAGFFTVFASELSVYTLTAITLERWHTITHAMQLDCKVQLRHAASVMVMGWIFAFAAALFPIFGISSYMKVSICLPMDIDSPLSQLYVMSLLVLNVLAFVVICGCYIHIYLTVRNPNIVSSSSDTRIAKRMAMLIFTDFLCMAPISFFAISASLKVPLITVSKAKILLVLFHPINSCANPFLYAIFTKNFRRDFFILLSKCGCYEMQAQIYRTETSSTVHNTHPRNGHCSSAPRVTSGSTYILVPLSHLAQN

U2OS [9] = experiment: Agonist activity at NPSR1B in human U2OS cells at 20 uM by PathHunter beta-arrestin assay relative to control; type: cell-based
[10] = target: T5, Follicle-stimulating hormone receptor (Homo sapiens); experiment: Agonist activity at human FSHR expressed in CHO-K1 cells at 20 uM by PathHunter beta-arrestin assay relative to control; type: cell-based
[11] = target: T6, C-C chemokine receptor type 3 (Homo sapiens) (UniProt P51677); experiment: Agonist activity at human CCR3 expressed in CHO-K1 cells at 20 uM by PathHunter beta-arrestin assay relative to control; type: cell-based
T6 sequence (whole entry): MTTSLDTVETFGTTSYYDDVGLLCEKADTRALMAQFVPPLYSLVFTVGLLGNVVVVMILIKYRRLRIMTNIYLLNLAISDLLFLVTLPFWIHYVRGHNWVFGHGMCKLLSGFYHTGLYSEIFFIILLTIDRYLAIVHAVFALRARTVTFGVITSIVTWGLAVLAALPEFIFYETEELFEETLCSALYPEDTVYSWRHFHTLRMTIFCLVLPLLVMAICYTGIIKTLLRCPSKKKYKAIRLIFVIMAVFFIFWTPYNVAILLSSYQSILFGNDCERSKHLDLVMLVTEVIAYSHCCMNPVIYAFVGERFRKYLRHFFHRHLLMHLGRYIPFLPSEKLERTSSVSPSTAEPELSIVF

[12] = target: T1, C-X-C chemokine receptor type 4; experiment: Antagonist activity at human CXCR4 expressed in mouse C2C12 cells at 20 uM by PathHunter beta-arrestin assay relative to control; type: cell-based; conditions: filed as antagonist

C-C chemokine receptor type 8, sequence (P51685 whole entry): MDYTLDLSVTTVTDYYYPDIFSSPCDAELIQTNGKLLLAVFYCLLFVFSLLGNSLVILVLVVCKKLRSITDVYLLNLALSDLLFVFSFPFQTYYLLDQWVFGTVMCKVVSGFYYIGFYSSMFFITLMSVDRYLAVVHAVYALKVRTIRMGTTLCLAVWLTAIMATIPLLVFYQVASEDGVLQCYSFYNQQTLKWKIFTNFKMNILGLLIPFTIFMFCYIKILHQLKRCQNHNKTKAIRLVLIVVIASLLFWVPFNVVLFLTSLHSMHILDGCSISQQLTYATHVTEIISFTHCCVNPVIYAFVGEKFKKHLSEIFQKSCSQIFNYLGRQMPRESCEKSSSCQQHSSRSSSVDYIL

inhibition [1] [%] | Activity [2] | Activity [3] | inhibition [4] [%] | Activity [5] | inhibition [7] [%] | Activity (Vasopressin V2 receptor) | inhibition [8] [%] | Activity [10] | Activity [11] | inhibition [12] [%] | Compound | inhibition (U2OS [6]) [%] | Activity (U2OS [9])
88 | inactive | inactive | 97 | inactive | 72 | inactive | 56 | inactive | inactive | 39 | COC(=O)[C@@H]1[C@H]2C[C@@H]3N(CC[C@@]34C(=O)N(Cc3cccc(OC)c3)c3ccccc34)C[C@@H]2CC[C@@H]1OCc1cccc(OC)c1 | 48 | inactive
90 | inactive | inactive | 9 | inactive | 92 | inactive | 51 | inactive | inactive | 125 | COC(=O)[C@@H]1[C@H]2C[C@@H](c3[nH]c4ccccc4c3CCn3cc(-c4cccc(Cl)c4)nn3)N(C#N)C[C@@H]2CC[C@@H]1O | 62 | inactive
